Assay results published in US10322999B2, “Oxindoles derivatives, preparation method thereof and pharmaceutical compositions for the prevention or treatment of cancer containing the same as an active ingredient” (RESEARCH & BUSINESS FOUNDATION SUNGKYUNKWAN UNIVERSITY, priority 2017, dated 2019).
Where two headings read alike, the source gives them in different places.

Experiments:
[1] = test system: human prostate adenocarcinoma cell line (LNCaP); experiment: MTT assay, growth inhibition of LNCaP cells; format: cell-based; details: for IC50: Homo sapiens, LNCaP; for inhibitory activity in LNCaP (in words): summary of Table 3, LNCaP
Method: (§1) To evaluate the anticancer activity of the oxindole derivatives produced and analyzed in examples 1 to 8, MTT assay was performed to confirm the growth inhibitory effect on cancer cells. More specifically, human prostate adenocarcinoma cell line (LNCaP), human breast cancer cell line (MCF-7), human ovarian cancer cell line (SKOV3), human lung cancer cell line […] and human renal adenocarcinoma cell line (786-O) were cultured in DMEM medium supplemented with 1% penicillin/streptomycin and 10% fetal bovine serum (All from Life Technologies, Grand Island, N.Y.). Cells were seeded in 96-well plates (3×10^3 cells/well) containing 100 μL of growth medium for 24 hours. After the medium was removed, 100 μL of each of the different analogues (dissolved in DMSO to 0.025% or less) was added to each well and cultured at 37° C. for 48 hours. After 48 hours of incubation, 100 μL of MTT reagent was added to each well. After incubation at 37° C. for 4 hours, the supernatant was aspirated, and the formazan crystals were dissolved in 100 μL of DMSO at 37° C. for 10 minutes with gentle stirring. Absorbance per well was measured at 540 nm using a VERSA max microplate reader (Molecular Devices Corp.). IC50 values were defined as compound concentrations that inhibited cell proliferation by 50% compared to cells treated with the highest amount of DMSO (0.025%) and were considered to be 100% viability.

[2] = test system: human breast cancer cell line (MCF-7); experiment: MTT assay, growth inhibition of MCF-7 cells; format: cell-based
Method: as §1

[3] = test system: human ovarian cancer cell line (SKOV3); experiment: MTT assay, growth inhibition of SKOV3 cells; format: cell-based
Method: as §1

[4] = test system: human lung cancer cell line (A459); experiment: MTT assay, growth inhibition of A549 cells; format: cell-based; details: for IC50: Homo sapiens
Method: as §1

[5] = test system: human renal adenocarcinoma cell line (786-O); experiment: MTT assay, growth inhibition of 786-O cells; format: cell-based; details: for IC50: Homo sapiens; for inhibitory activity in 786-O (in words): summary of Table 3, 786-O
Method: as §1

[6] = test system: all carcinomas; experiment: MTT assay, summary over all five cancer cell lines; format: cell-based, human; details: summary of Table 3, all five cell lines
Method: as §1

[7] = MTT, 48 hours incubation, read-out: LNCaP (IC50)
[8] = MCF7, MTT, 48 hours incubation, MCF-7, read-out: MCF-7 (IC50)
[9] = SK-OV-3, MTT, 48 hours incubation, SKOV3, read-out: SKOV3 (IC50)
[10] = MTT, 48 hours incubation, A549, read-out: A549 (IC50)
[11] = 786-0, MTT, 48 hours incubation, 786-O, read-out: 786-O (IC50)
[12] = 48 h, read-out: LNCaP (IC50, μM)
[13] = MCF7, 48 h, read-out: MCF-7 (IC50, μM)
[14] = SK-OV-3, 48 h, read-out: SKOV3 (IC50, μM)
[15] = 48 h, read-out: A549 (IC50, μM)
[16] = 786-0, 48 h, read-out: 786-O (IC50, μM)

| Structure (SMILES) | IC50 [1, 7] [µM] | IC50 [2, 8] [µM] | IC50 [3, 9] [µM] | IC50 [4, 10] [µM] | IC50 [5, 11] [µM] | inhibitory activity against all carcinomas (in words) [6] | inhibitory activity in LNCaP (in words) [1] | inhibitory activity in 786-O (in words) [5] | inhibitory activity in A549 (in words) ([4]; summary of Table 3, A549) | IC50 [1, 12] [µM] | IC50 [2, 13] [µM] | IC50 [3, 14] [µM] | IC50 [4, 15] [µM] | IC50 [5, 16] [µM] |
| --- | --- | --- | --- | --- | --- | --- | --- | --- | --- | --- | --- | --- | --- | --- |
| CNC(=O)CC1C(=O)N(Nc2ccccc2C)c2c(C)cccc21 (stereo not shown) [3b, N-Methyl-2-(7-methyl-2-oxo-1-(o-tolylamino)indolin-3-yl)acetamide] | > 50 | > 50 | > 50 | > 50 | > 50 |  |  |  |  |  |  |  |  |  |
| CNC(=O)CC1C(=O)N(Nc2cccc(C)c2C)c2c1ccc(C)c2C (stereo not shown) [3c, 2-(1-((2,3-Dimethylphenyl)amino)-6,7-dimethyl-2-oxoindolin-3-yl)-N-methylacetamide] | 44.6 | > 50 | > 50 | > 50 | 40.9 |  |  |  |  |  |  |  |  |  |
| CNC(=O)CC1C(=O)N(Nc2cccc(F)c2C)c2c1ccc(F)c2C (stereo not shown) [3d, 2-(6-Fluoro-1-((3-fluoro-2-methylphenyl)amino)-7-methyl-2-oxoindolin-3-yl)-N-methylacetamide] | > 50 | > 50 | > 50 | > 50 | > 50 |  |  |  |  |  |  |  |  |  |
| CNC(=O)CC1C(=O)N(Nc2cccc(Cl)c2C)c2c1ccc(Cl)c2C (stereo not shown) [3e, 2-(6-Chloro-1-((3-chloro-2-methylphenyl)amino)-7-methyl-2-oxoindolin-3-yl)-N-methylacetamide] | 15.5 | 20.5 | 21.3 | 33.3 | 14.7 | excellent |  |  |  |  |  |  |  |  |
| CNC(=O)CC1C(=O)N(Nc2cccc(Br)c2C)c2c1ccc(Br)c2C (stereo not shown) [3f, 2-(6-bromo-1-((3-bromo-2-methylphenyl)amino)-7-methyl-2-oxoindolin-3-yl)-N-methylacetamide] | 12.8 | 14.8 | 16.9 | 24 | 13.3 | excellent |  |  |  |  |  |  |  |  |
| CNC(=O)CC1C(=O)N(Nc2ccc(C)cc2C)c2c(C)cc(C)cc21 (stereo not shown) [3g, 2-(1-((2,4-dimethylphenyl)amino)-5,7-dimethyl-2-oxoindolin-3-yl)-N-methylacetamide] | > 50 | > 50 | > 50 | > 50 | > 50 |  |  |  |  |  |  |  |  |  |
| CNC(=O)CC1C(=O)N(Nc2ccc(F)cc2C)c2c(C)cc(F)cc21 (stereo not shown) [3h, 2-(5-Fluoro-1-((4-fluoro-2-methylphenyl)amino)-7-methyl-2-oxoindolin-3-yl)-N-methylacetamide] | 42.9 | > 50 | > 50 | > 50 | 41.3 |  |  |  |  |  |  |  |  |  |
| CNC(=O)CC1C(=O)N(Nc2ccc(Cl)cc2C)c2c(C)cc(Cl)cc21 (stereo not shown) [3i, 2-(5-Chloro-1-((4-chloro-2-methylphenyl)amino)-7-methyl-2-oxoindolin-3-yl)-N-methylacetamide] | 30.2 | > 50 | 44.5 | > 50 | 29.5 |  | excellent inhibitor activity | excellent inhibitor activity |  |  |  |  |  |  |
| CNC(=O)CC1C(=O)N(Nc2cc(Br)ccc2C)c2c(C)ccc(Br)c21 (stereo not shown) [3l, 2-(4-Bromo-1-((5-bromo-2-methylphenyl)amino)-7-methyl-2-oxoindolin-3-yl)-N-methylacetamide] | 42.4 | > 50 | > 50 | > 50 | 42.7 |  |  |  |  |  |  |  |  |  |
| CNC(=O)CC1C(=O)N(Nc2ccccc2)c2ccccc21 (stereo not shown) [3m, N-methyl-2-(2-oxo-1-(phenylamino)indolin-3-yl)acetamide] | > 50 | > 50 | > 50 | > 50 | > 50 |  |  |  |  |  |  |  |  |  |
| CNC(=O)CC1C(=O)N(Nc2ccc(C)cc2)c2ccc(C)cc21 (stereo not shown) [3n, N-Methyl-2-(5-methyl-2-oxo-1-(p-tolylamino)indolin-3-yl)acetamide] | > 50 | > 50 | > 50 | > 50 | > 50 |  |  |  |  |  |  |  |  |  |
| CCc1cccc(NN2C(=O)C(CC(=O)NC)c3ccc(CC)cc32)c1 (stereo not shown) [3o, 2-(6-Ethyl-1-((3-ethylphenyl)amino)-2-oxoindolin-3-yl)-N-methylacetamide] | > 50 | > 50 | > 50 | > 50 | > 50 |  |  |  |  |  |  |  |  |  |
| CCOC(=O)NC(=O)CC1C(=O)N(Nc2ccccc2CC)c2c(CC)cccc21 (stereo not shown) [4h, Ethyl (2-(7-ethyl-1-((2-ethylphenyl)amino)-2-oxoindolin-3-yl)acetyl)carbamate] |  |  |  |  |  |  |  |  |  | > 50 | > 50 | > 50 | > 50 | > 50 |
| CCc1ccccc1NN1C(=O)C(CC(=O)N[C@@H](C)C(=O)OC)c2cccc(CC)c21 (stereo partly drawn) [4j, Methyl (2-(7-ethyl-1-((2-ethylphenyl)amino)-2-oxoindolin-3-yl)acetyl)-L-alaninate] |  |  |  |  |  |  |  |  |  | > 50 | > 50 | > 50 | > 50 | > 50 |

The next lines start with results.

| IC50 [1, 7] [µM] | IC50 [2, 8] [µM] | IC50 [3, 9] [µM] | IC50 [4, 10] [µM] | IC50 [5, 11] [µM] | Structure (SMILES) | inhibitory activity against all carcinomas (in words) [6] | inhibitory activity in LNCaP (in words) [1] | inhibitory activity in 786-O (in words) [5] | inhibitory activity in A549 (in words) ([4]; summary of Table 3, A549) | IC50 [1, 12] [µM] | IC50 [2, 13] [µM] | IC50 [3, 14] [µM] | IC50 [4, 15] [µM] | IC50 [5, 16] [µM] |
| --- | --- | --- | --- | --- | --- | --- | --- | --- | --- | --- | --- | --- | --- | --- |
| 32.2 | > 50 | > 50 | > 50 | > 50 | CCNC(=O)CC1C(=O)N(Nc2ccccc2CC)c2c(CC)cccc21 (stereo not shown) [4b, N-Ethyl-2-(7-ethyl-1-((2-ethylphenyl)amino)-2-oxoindolin-3-yl)acetamide] |  | excellent activity | excellent activity | excellent activity |  |  |  |  |  |
| 12.2 | 16.6 | 20.3 | 28.9 | 10.5 | CCc1ccccc1NN1C(=O)C(CC(=O)NCc2ccccc2)c2cccc(CC)c21 (stereo not shown) [4c, N-Benzyl-2-(7-ethyl-1-((2-ethylphenyl)amino)-2-oxoindolin-3-yl)acetamide] | excellent |  |  |  |  |  |  |  |  |
| 33 | 40.4 | > 50 | > 38.6 | 33.1 | CCc1ccccc1NN1C(=O)C(CC(=O)NC2CCCCC2)c2cccc(CC)c21 (stereo not shown) [4d, N-Cyclohexyl-2-(7-ethyl-1-((2-ethylphenyl)amino)-2-oxoindolin-3-yl)acetamide] |  |  |  |  |  |  |  |  |  |
| 15.3 | > 50 | > 50 | > 50 | 36.6 | CCc1ccccc1NN1C(=O)C(CC(=O)NC(C)(C)C)c2cccc(CC)c21 (stereo not shown) [4e, N-(tert-butyl)-2-(7-ethyl-1-((2-ethylphenyl)amino)-2-oxoindolin-3-yl)acetamide] |  |  |  |  |  |  |  |  |  |
| > 50 | > 50 | > 50 | > 50 | > 50 | CCc1ccccc1NN1C(=O)C(CC(N)=O)c2cccc(CC)c21 (stereo not shown) [4f, 2-(7-Ethyl-1-((2-ethylphenyl)amino)-2-oxoindolin-3-yl)acetamide] |  |  |  |  |  |  |  |  |  |
| 6 | 9.6 | 13.8 | 16.8 | 4.8 | CCc1ccccc1NN1C(=O)C(CC(=O)Nc2ccccc2)c2cccc(CC)c21 (stereo not shown) [4g, 2-(7-Ethyl-1-((2-ethylphenyl)amino)-2-oxoindolin-3-yl)-N-phenylacetamide] | excellent |  |  |  |  |  |  |  |  |
| 33.5 | > 50 | > 50 | > 50 | 32.6 | CCc1ccccc1NN1C(=O)C(CC(=O)NC(=O)OC)c2cccc(CC)c21 (stereo not shown) [4i, Methyl (2-(7-ethyl-1-((2-ethylphenyl)amino)-2-oxoindolin-3-yl)acetyl)carbamate] |  |  |  |  |  |  |  |  |  |
| > 50 | > 50 | > 50 | > 50 | > 50 | CCc1ccccc1NN1C(=O)C(CC(=O)OC)c2cccc(CC)c21 (stereo not shown) [6a, Methyl 2-(7-ethyl-1-((2-ethylphenyl)amino)-2-oxoindolin-3-yl)acetate] |  |  |  |  |  |  |  |  |  |
| 14.5 | 45.5 | > 50 | > 50 | 30.5 | CCc1ccccc1NN1C(=O)C(CC(=O)OC(C)C)c2cccc(CC)c21 (stereo not shown) [6c, Isopropyl 2-(7-ethyl-1-((2-ethylphenyl)amino)-2-oxoindolin-3-yl)acetate] |  | excellent activity |  |  |  |  |  |  |  |
| > 50 | > 50 | > 50 | > 50 | > 50 | CCc1cccc2c1NC(=O)C2CC(=O)OC(C)C (stereo not shown) [8b, Isopropyl 2-(7-ethyl-2-oxoindolin-3-yl)acetate] |  |  |  |  |  |  |  |  |  |
